Assay results reported in patent publication US11369111B2, “Synergistic composition of nematicide comprising of chalcones” (priority 2017, dated 2022).

Legend:
[1] = tested on: B. subtilis (Gram positive); assay: Effect of chalcones on common microorganisms (CFU on nutrient agar plates); assay type: cell-based, Bacillus subtilis; conditions: for Effect on microorganism (Colony Forming Units): 24-48 hours
Description: (§1) Two common soil microorganisms (Pseudomonas aeruginosa and Bacillus subtilis) and two common laboratory microorganisms (Escherichia coli, and Saccharomyces cerevisiae) were tested for the effects of individual chalcones. Microorganisms were grown on nutrient agar plates containing 10^−4, 10^−5, or 10^−6 M concentrations of chalcones and Colony Forming Units (CFU) were counted after 24-48 hours of growth in nutrient agar plates.

[2] = tested on: P. aeruginosa (Gram negative); assay: as above; assay type: cell-based, Pseudomonas aeruginosa; conditions: for Effect on microorganism (Colony Forming Units): 24-48 hours
Description: as §1

S. cerevisiae = assay: as above; assay type: cell-based, Saccharomyces cerevisiae; conditions: for Effect on microorganism (Colony Forming Units): 24-48 hours
Description: as §1

E. coli (Gram negative) = assay: as above; assay type: cell-based, Escherichia coli; conditions: for Effect on microorganism (Colony Forming Units): 24-48 hours
Description: as §1

Caenorhabditis elegans = conditions: 10^−4 M, laboratory conditions, individually; cited from earlier work
root-knot nematodes = assay: Gall formation in roots of infected cucumber plants (root gall index); assay type: in vivo
cucumber crop = assay: Effect on growth of cucumber plants in a poly house; assay type: in vivo
[3] = tested on: root knot nematodes in soil; assay: Effect on root knot nematodes in soil; assay type: in vivo, Meloidogyne

## O=C(/C=C/c1ccccc1)c1ccc(Cl)cc1Cl [Chalcone 17, (2E)-1-(2,4-Dichlorophenyl)-3-phenyl-2-propen-1-one]
[1]
  effect on growth of microorganism: limit the growth
[1]; 10^−4 M
  Effect on microorganism (Colony Forming Units): 69.0
[1]; 10^−5 M
  Effect on microorganism (Colony Forming Units): 51.4
[1]; 10^−6 M
  Effect on microorganism (Colony Forming Units): 50.8
[2]
  effect on growth of microorganism: limit the growth
[2]; 10^−4 M
  Effect on microorganism (Colony Forming Units): 55.8
[2]; 10^−5 M
  Effect on microorganism (Colony Forming Units): 53.9
[2]; 10^−6 M
  Effect on microorganism (Colony Forming Units): 56.0
S. cerevisiae; 10^−4 M
  Effect on microorganism (Colony Forming Units): 97.0
S. cerevisiae; 10^−5 M
  Effect on microorganism (Colony Forming Units): 82.8
S. cerevisiae; 10^−6 M
  Effect on microorganism (Colony Forming Units): 106.7
E. coli (Gram negative); 10^−4 M
  Effect on microorganism (Colony Forming Units): 115.4
E. coli (Gram negative); 10^−5 M
  Effect on microorganism (Colony Forming Units): 131.3
E. coli (Gram negative); 10^−6 M
  Effect on microorganism (Colony Forming Units): 97.3
Caenorhabditis elegans
  nematicidal activity: shown nematicidal activity

## CNC(=O)Oc1cccc2c1OC(C)(C)C2 [Carbofuran]
root-knot nematodes; Day 1
  Root gall index (Day 1): 1
root-knot nematodes; Day 25 of treatment
  Root gall index (Day 25 of treatment): 2 (2=1-25%)
root-knot nematodes; Day 45, 20 days after second treatment
  Root gall index (Day 45-20 days after second treatment): 4 (4=51-75%)
Cucumber crop; Day 10 (FIG. 3)
  increase in shoot length compared to untreated plants: did not show similar positive effect
Cucumber crop; Day 10 (FIG. 6)
  increase in leaf length compared to untreated plants: did not show similar positive effect
Cucumber crop; Day 10 (FIG. 9)
  increase in number of flowers compared to untreated plants: did not show similar positive effect
Cucumber crop; Day 21 (FIG. 4)
  increase in shoot length compared to untreated plants: did not have similar positive effect
Cucumber crop; Day 21 (FIG. 7)
  increase in leaf length compared to untreated plants: did not show similar positive effect
Cucumber crop; Day 21 (FIG. 10)
  increase in number of flowers compared to untreated plants: did not show similar positive effect
Cucumber crop; Day 21 (FIG. 12)
  increase in number of fruits compared to untreated plants: did not show similar positive effect
Cucumber crop; Day 21 (FIG. 13)
  increase in number of fruits compared to untreated plants: did not show similar positive effect
Cucumber crop; Day 21 (FIG. 14)
  increase in number of fruits compared to untreated plants: did not show similar positive effect
Cucumber crop; Day 35 (FIG. 5)
  increase in shoot length compared to untreated plants: did not show similar positive effect
Cucumber crop; Day 35 (FIG. 8)
  increase in leaf length compared to untreated plants: did not show similar positive effect
Cucumber crop; Day 35 (FIG. 11)
  increase in number of flowers compared to untreated plants: did not show similar positive effect
Cucumber crop; after 28 days of treatment
  Percentage Change compared to untreated, Average Leaf length: 6%
  Percentage Change compared to untreated, Average Shoot length: 3%
  Percentage Change compared to untreated, Average number of flowers: −9%
  Percentage Change compared to untreated, Average number of fruits: 50%
[3]; after 14 days, even at higher dosages
  effect on nematodes in the soil: did not show any significant effect
[3]; after 19 days of treatment (FIG. 17-19)
  efficacy in killing and maintaining a small number of nematodes in soil: do not have the same positive effect

## O=C(/C=C/c1ccccc1)c1cccs1 [Chalcone 30, (2E)-3-Phenyl-1-(2-thienyl)-2-propen-1-one]
Caenorhabditis elegans
  nematicidal activity: shown nematicidal activity

## CCOc1ccc(C(=O)/C=C/c2ccccc2)cc1 [Chalcone 25, (2E)-1-(4-Ethoxyphenyl)-3-phenyl-2-propen-1-one]
[1]
  effect on growth of microorganism: limit the growth
[1]; 10^−4 M
  Effect on microorganism (Colony Forming Units): 55.1
[1]; 10^−5 M
  Effect on microorganism (Colony Forming Units): 55.9
[1]; 10^−6 M
  Effect on microorganism (Colony Forming Units): 83.6
[2]
  effect on growth of microorganism: promote the growth
[2]; 10^−4 M
  Effect on microorganism (Colony Forming Units): 148.8
[2]; 10^−5 M
  Effect on microorganism (Colony Forming Units): 148.1
[2]; 10^−6 M
  Effect on microorganism (Colony Forming Units): 141.2
S. cerevisiae
  effect on growth of microorganism: does not affect the growth
S. cerevisiae; 10^−4 M
  Effect on microorganism (Colony Forming Units): 97.8
S. cerevisiae; 10^−5 M
  Effect on microorganism (Colony Forming Units): 125.4
S. cerevisiae; 10^−6 M
  Effect on microorganism (Colony Forming Units): 90.3
E. coli (Gram negative)
  effect on growth of microorganism: does not affect the growth
E. coli (Gram negative); 10^−4 M
  Effect on microorganism (Colony Forming Units): 52.3
E. coli (Gram negative); 10^−5 M
  Effect on microorganism (Colony Forming Units): 69.6
E. coli (Gram negative); 10^−6 M
  Effect on microorganism (Colony Forming Units): 103.3
Caenorhabditis elegans
  nematicidal activity: shown nematicidal activity
